Numbering of substitutions follows the chain as printed.
T1: SASPase-FLG2 interaction (Homo sapiens, UniProt Q53RT3, D212A)
T1 construct: made in house; host or cells: E. coli BL21DE3
T1 sequence (Q53RT3 85-343 D212A): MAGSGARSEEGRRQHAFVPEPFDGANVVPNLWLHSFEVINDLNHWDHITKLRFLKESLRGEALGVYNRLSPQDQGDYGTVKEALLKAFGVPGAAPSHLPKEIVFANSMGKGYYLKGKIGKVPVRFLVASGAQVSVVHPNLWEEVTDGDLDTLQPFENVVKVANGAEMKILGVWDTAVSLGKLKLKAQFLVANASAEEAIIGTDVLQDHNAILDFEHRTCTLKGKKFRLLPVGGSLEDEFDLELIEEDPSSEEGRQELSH

T2: recombinant SASPase (28 kDa) (Homo sapiens, UniProt Q53RT3)
T2 construct: made in house
T2 sequence (Q53RT3 85-343): T1 sequence (Q53RT3 85-343 D212A) with A128D

B1: FLG2-Hs: recombinant filaggrin-2, amino acids 2-213 of Q5D862, fused N-terminally to thioredoxin-His-S.Tag; active form (protein, UniProt Q5D862 2-213, looked up, fragment)
chain: TDLLRSVVTVIDVFYKYTKQDGECGTLSKGELKELLEKELHPVLKNPDDPDTVDVIMHMLDRDHDRRLDFTEFLLMIFKLTMACNKVLSKEYCKASGSKKHRRGHRHQEEESETEEDEEDTPGHKSGYRHSSWSEGEEHGYSSGHSRGTVKCRHGSNSRRLGRQGNLSSSGNQEGSQKRYHRSSCGHSWSGGKDRHGSSSVELRERINKSHI
modifications: N-terminal thioredoxin-His-S.Tag fusion
B2: FLG2-AbD: recombinant filaggrin-2, amino acids 81-212 of Q5D862, fused N-terminally to thioredoxin-His-S.Tag; inactive form (protein, UniProt Q5D862 81-212, looked up, fragment)
chain: LTMACNKVLSKEYCKASGSKKHRRGHRHQEEESETEEDEEDTPGHKSGYRHSSWSEGEEHGYSSGHSRGTVKCRHGSNSRRLGRQGNLSSSGNQEGSQKRYHRSSCGHSWSGGKDRHGSSSVELRERINKSH
modifications: N-terminal thioredoxin-His-S.Tag fusion

Columns and labels:
SASPase-FLG2 interaction = molecular target: T1, SASPase-FLG2 interaction; assay: HTRF (FRET) screening of agents that modulate the SASPase-FLG2 interaction; assay type: binding; conditions: SASPase85-343D212A-GST 50 nM, FLG22-213-S-His-THX 200 nM, PBS pH 7.4; read-out: IC50, inhibition of the SASPase-FLG2 interaction
Method: The process developed is based on the FLG2-SASPase interaction and uses the homogeneous time-resolved fluorescence (or HTRF) technique.
A recombinant SASPase protein (comprising the amino acid sequence 85-343 of Q53RT3) mutated at its active site (D212A of Q53RT3) and fused with the GST (glutathione S-transferase from Schistosoma japonicum) affinity marker, at its C-terminal end, was prepared in the vector pGEX-4-T3 (GenBank U13855) (SASPase85-343D212A-GST). The D212A mutation was introduced to inactivate the SASPase and to promote a stable interaction with FLG2. […]
Antibodies recognizing, respectively, the affinity markers GST or His-S.Tag, and bearing, respectively, an EuK fluorescence donor group (europium cryptate λex 337 nm/λem 620 nm) or an XL1665 fluorescence receiver group (λex 570-630 nm/λem 665 nm) are used to monitor the peptide-SASPase interaction.
The SASPase-FLG2 interaction was observed by fluorescence energy transfer (FRET) between the fluorescent markers Euk and XL1665. The Euk fluorescence donor was excited at λex 337 nm and the fluorescence emission of the XL1665 fluorescence acceptor was measured at λem 665 nm.
The Euk fluorescence emission at λem 620 nm, taking place independently of the interaction between SASPase and FLG2, was used to normalize the signal. Thus, for each point, a ratio λem 665/λem 620 is determined. […]

[1] = tested on: reconstructed human epidermis Episkin J6; assay: Western blotting of differentiation markers in Episkin reconstructed epidermis; assay type: cell-based; conditions: Episkin epidermis cultured in the presence of M7 (10 μM, 1 μM, 0.5 μM)
Method: (§1) A model of reconstructed human epidermis Episkin J6 (reference 09-EPIS-015) was cultured by immersion in Episkin differentiation medium, 3.5 ml under insert in an oven at 37° C., 5% CO2, the medium being changed every 2 days.
(§2) The compound “M7” was tested at concentrations of 10 μM, 1 μM and 0.5 μM by incubation of the epidermal model with a differentiation culture medium supplied by EpiSkin®, comprising the compound at the test concentration or a buffer solution as control (DMSO at 0.1% final).
(§3) The effect of the compound “M7” on the differentiation and/or proliferation of epidermal cells is evaluated by measuring the thickness of the stratum corneum, and measurement of the expression and/or activation of transglutaminase I (TGI), caspase 14, SASPase, corneodesmosin, desmoglein 1 or protein Ki67.
The activation, expression and maturation of TGI, filaggrin, caspase 14, SASPase, corneodesmosin and desmoglein 1 were determined by western blotting.
For the western blotting, the soluble proteins, TGI, caspase 14, corneodesmosin and SASPase were extracted from two Episkin® nacelles with a manual potter in 1 ml of “native +” buffer (TBS, 1M NaCl, 0.1% Tween 20). The extract is centrifuged at 14 000 rpm, at 4° C. for 10 minutes. The supernatant obtained is filtered through a 0.45 μm Millipore filter (millex) and the proteins are then quantified by the BCA method (Pierce). The protein concentrations are equilibrated to 625 μg/ml final.
The extracts are deposited on a 10-20% Criterion gel (ref.: 345-0044 Bio-Rad) according to the supplier's protocol, and are then transferred onto a PVDF membrane via the semi-dry method.
The western blotting immunochemical detection is performed according to a standard protocol carried out with primary antibodies specific for the target and secondary antibodies coupled to HRP. Revelation is performed with the kits ECL; ECL plus; ECL advanced (Amersham) according to the necessary sensitivity and according to the supplier's protocol. The photon imaging apparatus used is the Fluor S Multilmager (Bio-Rad).
For TGI, primary antibody: Covalab pab 0061 at 1/100 produced in rabbits; secondary antibody: HRP-coupled anti-rabbit antibody at 1/4000: Bio-rad 170-6515
For caspase 14, primary antibody: Santa Cruz sc-5628 at 1/500 produced in rabbits; secondary antibody: HRP-coupled anti-rabbit antibody at 1/400: Bio-rad 170-6515
For corneodesmosin, primary antibody: Abnova 1041-M01 at 1/5000 produced in mice; secondary antibody: HRP-coupled anti-mouse antibody at 1/4000: Bio-rad 170-6516
For SASPase, primary antibody: Covalab 7H9a105 at 1/2000 produced in mice; secondary antibody: HRP-coupled anti-mouse antibody at 1/4000: Bio-rad 170-6516
For the western blotting of filaggrin and desmoglein 1, these proteins are extracted from the pellet obtained during the extraction of the “soluble” proteins. The pellets are ground with an electric potter in 200 μl of whole Laemmli buffer ([…] Tris; 2% SDS; 200 mM DTT; 10% glycerol) and then heated at 90° C. for 10 minutes and finally centrifuged for 10 minutes at 14 000 rpm at room temperature.
The supernatants obtained are assayed for proteins via the Bradford method (cytoskeleton). The total protein concentrations are equilibrated to 1 mg/ml final. A western blotting protocol identical to the previous one is applied.
For desmoglein 1, primary antibody: Progen 61002 at 1/100 produced in mice; secondary antibody: HRP-coupled anti-mouse antibody at 1/4000: Bio-rad 170-6516

[2] = tested on: reconstructed human epidermis Episkin J6; assay: Ki67 immunofluorescence on frozen slices of Episkin reconstructed epidermis; assay type: cell-based; conditions: Episkin epidermis cultured in the presence of M7 (10 μM, 1 μM, 0.5 μM)
Method: as §1, §2, §3
The activation, expression and maturation of Ki67 were determined by immunofluorescence on frozen slices.
The immunofluorescence labeling on frozen slices is performed using a standard protocol, with a PBS buffer; 0.2% BSA for the steps of washing and incubation of the primary and secondary antibodies, and with a PBS buffer; 5% BSA for the step for blocking the nonspecific sites.
For the detection of Ki67, primary antibody: Novocastra mm1 at 1/20 produced in mice; secondary antibody: AlexaFLuor A488-coupled anti-mouse antibody at 1/1000 (Molecular Probes A11017). […]

[3] = tested on: reconstructed human epidermis Episkin J6; assay: Stratum corneum thickness by histological observation on slices of Episkin reconstructed epidermis; assay type: cell-based; conditions: tested at 10 μM, 1 μM and 0.5 μM; observed at and above the lowest concentration tested
Method: as §1, §2, §3
The thickness of the stratum corneum was estimated by histological observation on slices.

[4] = molecular target: T2, recombinant SASPase (28 kDa); assay: Enzymatic activation of SASPase by FLG2 (hydrolysis of fluorescent substrate Dabcyl-QIDRIMEK-Edans); assay type: biochemical; conditions: for enzymatic activity of the SASPase: increasing concentration of FLG2 form (0.01 to 10 times SASPase 0.025 mg/ml), acetate/acetic acid buffer pH 5.5, 37° C.
Method: The enzymatic reaction is performed in an acetate/acetic acid buffer. The FIGURE illustrates the mean±sem of an experiment performed in duplicate.
A 28-kDa recombinant SASPase corresponding to the amino acid sequence 85 to 343 of the sequence Q53RT3 (Uniprot/Swissprot ref.) was prepared as described by Bernard et al. (J. Invest. Dermatol., 2005, 125: 278-287) (SASPase85-343).
The SASPase was dissolved in a PBS buffer and used at a final concentration of 0.025 mg/ml in the presence of a final concentration of a colorimetric substrate Dabcyl-QIDRIMEK-Edans of 0.01 mM (Production Jerini Peptide Ref. D17: JPT Peptide Technologies GmbH).
FLG2-Hs and FLG2-AbD are used at concentrations corresponding to 0.01, 0.02, 0.04, 0.08, 0.16, 0.31, 0.63, 1.25, 2.5, 5 or 10 times the final concentration of SASPase, i.e. 0.025 mg/ml.
SASPase and FLG2-Hs, or FLG2-AbD, are incubated at 37° C. in a 0.1 M acetate/acetic acid buffer at pH 5.5 containing 150 mM of NaCl, in the presence of Dabcyl-QIDRIMEK-Edans.
The hydrolysis of the colorimetric substrate by the activated SASPase leads to the separation of the Edans fluorochrome and of its Dabcyl deactivator (or quencher), and to an increase in the fluorescence of Edans.
Measurement of the fluorescent signal is performed at λex 340 nm/[…]. The fluorescence is read every 10 minutes for 1 hour 30 minutes at 37° C., with a Spectramax M5e (Molecular Devices).

Molecule | IC50 (SASPase-FLG2 interaction) | expression and activation of SASPase [1] | expression and activation of TGI (transglutaminase I) [1] | expression and activation of caspase 14 [1] | expression and activation of corneodesmosin [1] | expression and activation of desmoglein [1] | activation and expression of the protein Ki67 [2] | thickness of the stratum corneum [3] | FLG2 concentration at and above which activation of SASPase proteolytic activity is obtained ([4]; SASPase 0.025 mg/ml) | enzymatic activity of the SASPase [4]
Cc1ccc(C(=O)Oc2cccc(C3C4=C(Nc5c3c(=O)n(C)c(=O)n5C)c3ccccc3C4=O)c2)cc1 (centres unmarked) [M7] | ~2000 nM | increase | increase | increase | increase | increase | decrease | thickening |  | 
B1 |  |  |  |  |  |  |  |  | equivalent to that of the SASPase | significantly increased
B2 |  |  |  |  |  |  |  |  |  | virtually unchanged

— patent publication US9869681B2, “Process for treating an individual with an esthetic defect of skin by modulating SASPase FLG2 complex” (L'OREAL, priority 2010, dated 2018)
